Laboratory results as given in PubChem BioAssay AID248 (DTP/NCI, 2004).
“And” between values parts separate entries of the source, which are not always exact repeats. Equal values may be shown once. Toxic doses and inconclusive results are not listed.

System: L1210 leukemia ip in BDF1 mice, survival T/C
Assay: NCI In Vivo Anticancer Drug Screen. Data for tumor model L1210 Leukemia (intraperitoneal) in B6D2F1 (BDF1) mice
Details: endpoint: mean survival time, higher = longer survival
In short: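 Read-out is survival time, reported as the treated-group measurement over the vehicle-control measurement.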

[1] = dose: 100.0 mg/kg/injection, schedule: Q01DX001 (ip), vehicle: Klucel (hydroxypropylcellulose) (HPC)
[2] = dose: 100.0 mg/kg/injection, schedule: Q01DX009 (ip), vehicle: Klucel (hydroxypropylcellulose) (HPC)
[3] = dose: 200.0 mg/kg/injection, schedule: Q01DX001 (ip), vehicle: Klucel (hydroxypropylcellulose) (HPC)
[4] = dose: 200.0 mg/kg/injection, schedule: Q01DX009 (ip), vehicle: Klucel (hydroxypropylcellulose) (HPC)
[5] = dose: 400.0 mg/kg/injection, schedule: Q01DX001 (ip), vehicle: Klucel (hydroxypropylcellulose) (HPC)
[6] = dose: 400.0 mg/kg/injection, schedule: Q01DX009 (ip), vehicle: Klucel (hydroxypropylcellulose) (HPC)
[7] = dose: 100.0 mg/kg/injection, schedule: Q04DX003 (ip), vehicle: Klucel (hydroxypropylcellulose) (HPC)
[8] = dose: 200.0 mg/kg/injection, schedule: Q04DX003 (ip), vehicle: Klucel (hydroxypropylcellulose) (HPC)
[9] = dose: 400.0 mg/kg/injection, schedule: Q04DX003 (ip), vehicle: Klucel (hydroxypropylcellulose) (HPC)
[10] = dose: 75.0 mg/kg/injection, schedule: Q01DX001 (ip), vehicle: saline
[11] = dose: 150.0 mg/kg/injection, schedule: Q01DX001 (ip), vehicle: saline
[12] = dose: 100.0 mg/kg/injection, schedule: Q01DX001 (ip), vehicle: carboxymethylcellulose (CMC)
[13] = dose: 200.0 mg/kg/injection, schedule: Q01DX001 (ip), vehicle: carboxymethylcellulose (CMC)
[14] = dose: 400.0 mg/kg/injection, schedule: Q01DX001 (ip), vehicle: carboxymethylcellulose (CMC)
[15] = dose: 12.5 mg/kg/injection, schedule: Q01DX009 (ip), vehicle: saline with Tween-80
[16] = dose: 25.0 mg/kg/injection, schedule: Q01DX009 (ip), vehicle: saline with Tween-80
[17] = dose: 100.0 mg/kg/injection, schedule: Q01DX009 (ip), vehicle: saline with Tween-80
[18] = dose: 50.0 mg/kg/injection, schedule: Q04DX002 (ip), vehicle: saline with Tween-80
[19] = dose: 100.0 mg/kg/injection, schedule: Q04DX002 (ip), vehicle: saline with Tween-80
[20] = dose: 100.0 mg/kg/injection, schedule: Q04DX003 (ip), vehicle: saline with Tween-80
[21] = dose: 200.0 mg/kg/injection, schedule: Q01DX009 (ip), vehicle: saline with Tween-80
[22] = dose: 200.0 mg/kg/injection, schedule: Q04DX003 (ip), vehicle: saline with Tween-80
[23] = dose: 400.0 mg/kg/injection, schedule: Q01DX009 (ip), vehicle: saline with Tween-80
[24] = dose: 400.0 mg/kg/injection, schedule: Q04DX003 (ip), vehicle: saline with Tween-80

For CSc1ncc(COC(C)=O)c(N)n1, the T/C [1] was 97 % of control, the T/C [2] was 102 % of control and the T/C [3] was 99 % of control. The T/C [4] was 96 % of control, the T/C [5] was 92 % of control and the T/C [6] was 104 % of control.
For COc1ccc(C(=O)c2ccc(Br)s2)cc1, the T/C [2] was 94 % of control, the T/C [7] was 97 % of control and the T/C [4] was 97 % of control. The T/C [8] was 97 % of control, the T/C [6] was 95 % of control and the T/C [9] was 96 % of control.
For CN1CCOC1=Nc1cccc2c1CCCC2, the T/C (dose: 50.0 mg/kg/injection, schedule: Q01DX009 (ip), vehicle: other) was 96 % of control, the T/C (dose: 100.0 mg/kg/injection, schedule: Q01DX009 (ip), vehicle: other) was 101 % of control and the T/C (dose: 400.0 mg/kg/injection, schedule: Q01DX009 (ip), vehicle: other) was 95 % of control.
In the case of CSC(SC)=C(C#N)C#N, the T/C (dose: 25.0 mg/kg/injection, schedule: Q04DX002 (ip), vehicle: saline) is reported as 101 % of control.
CCOC(=O)C(C#N)NC(C)=O (configuration not stated) was tested, and the T/C [7] was 102 % of control, the T/C [8] was 102 % of control and the T/C [9] was 111 % of control.
CCCCCC(OCC)(OCC)OCC was tested, and the T/C [2] was 95 % of control, the T/C [7] was 104 % of control and the T/C [4] was 96 % of control. For the same compound, the T/C [8] was 93 % of control, the T/C [6] was 92 % of control and the T/C [9] was 93 % of control.
O=CN=C(CS(=O)(=O)O)c1ccccc1 was tested, and the T/C (dose: 50.0 mg/kg/injection, schedule: Q04DX003 (ip), vehicle: saline) was 103 % of control, the T/C (dose: 100.0 mg/kg/injection, schedule: Q04DX003 (ip), vehicle: saline) was 108 % of control and the T/C (dose: 200.0 mg/kg/injection, schedule: Q04DX003 (ip), vehicle: saline) was 100 % of control. The T/C (dose: 400.0 mg/kg/injection, schedule: Q04DX003 (ip), vehicle: saline) was 102 % of control.
In the case of CCOP(=O)(OCC)Oc1cc(C)c(SC)c(C)c1, the T/C [10] is reported as 89 % of control and the T/C [11] is reported as 101 % of control.
In the case of OC(COc1c(Cl)c(Cl)c(Cl)c(Cl)c1Cl)CN1CCN(c2ccccc2Cl)CC1 (configuration not stated), the T/C (dose: 100.0 mg/kg/injection, schedule: Q01DX001 (ip), vehicle: saline) is reported as 95 % of control, the T/C (dose: 200.0 mg/kg/injection, schedule: Q01DX001 (ip), vehicle: saline) is reported as 92 % of control and the T/C (dose: 400.0 mg/kg/injection, schedule: Q01DX001 (ip), vehicle: saline) is reported as 92 % of control.
In the case of CCCCCCCC(=O)Oc1ccc(C)cc1, the T/C (dose: 100.0 mg/kg/injection, schedule: Q01DX Z (ip), vehicle: carboxymethylcellulose (CMC)) is reported as 103 % of control, the T/C (dose: 150.0 mg/kg/injection, schedule: Q01DX Z (ip), vehicle: carboxymethylcellulose (CMC)) is reported as 106 % of control and the T/C (dose: 225.0 mg/kg/injection, schedule: Q01DX Z (ip), vehicle: carboxymethylcellulose (CMC)) is reported as 97 % of control.
For O=C(NCCBr)Nc1ccc2c(c1)OCO2, the T/C [2] was 94 % of control, the T/C [7] was 111 % of control and the T/C [4] was 102 % of control. The T/C [8] was 101 % of control, the T/C [6] was 96 % of control and the T/C [9] was 108 % of control.
For COc1ccc(-c2ccc(OC)cc2OC)c(OC)c1, the T/C [12] was 112 % of control, the T/C [13] was 107 % of control and the T/C [14] was 112 % of control.
For CCOC(=O)C[P+](c1ccc(OC)cc1)(c1ccc(OC)cc1)c1ccc(OC)cc1, the T/C (dose: 30.0 mg/kg/injection, schedule: Q01DX001 (ip), vehicle: carboxymethylcellulose (CMC)) was 90 % of control.
In the case of COC(=O)C1(C(=O)OC)C(c2ccccc2)C1(C(=O)OC)C(=O)OC, the T/C [15] is reported as 94 % of control, the T/C [16] is reported as 98 % of control and the T/C (dose: 50.0 mg/kg/injection, schedule: Q01DX009 (ip), vehicle: saline with Tween-80) is reported as 94 % of control. The T/C [17] was 91 % of control.
CN(C)C(=O)Sc1ccc2ccc3ccccc3c2c1 was tested, and the T/C [18] was 108 % of control, the T/C [19] was 104 % of control and the T/C (dose: 200.0 mg/kg/injection, schedule: Q04DX002 (ip), vehicle: saline with Tween-80) was 108 % of control.
For NCC1OC(OC2C(CO)OC(OC3C(O)C(N)CC(N)C3OC3OC(CN)C(O)C(O)C3N)C2O)C(N)C(O)C1O (configuration not stated), the T/C (dose: 37.5 mg/kg/injection, schedule: Q01DX001 (ip), vehicle: saline) was 100 % of control, the T/C [10] was 105 % of control and the T/C [11] was 111 % of control.
In the case of CCCCNC(=O)Nc1ccccc1CC, the T/C [2] is reported as 93 % of control, the T/C [7] is reported as 95 % of control and the T/C [4] is reported as 96 % of control. The T/C [8] was 106 % of control, the T/C [6] was 93 % of control and the T/C [9] was 97 % of control.
In the case of O=C(NC1CCCCC1)Oc1c(Cl)cc(Cl)c(Cl)c1[N+](=O)[O-], the T/C (dose: 25.0 mg/kg/injection, schedule: Q04DX002 (ip), vehicle: saline with Tween-80) is reported as 92 % of control, the T/C [18] is reported as 99 % of control and the T/C [19] is reported as 99 % of control and 114 % of control.
With Nc1nc(-c2ccccc2)c(CCCOc2ccc(NC(=O)CBr)cc2)c(=O)[nH]1 the T/C (dose: 50.0 mg/kg/injection, schedule: Q01DX001 (ip), vehicle: carboxymethylcellulose (CMC)) was 91 % of control, the T/C [12] was 96 % of control and the T/C [13] was 86 % of control. The T/C [14] was 86 % of control.
In the case of CN1C(=O)OC2(CCN(Cc3ccc([N+](=O)[O-])o3)CC2)C1=O, the T/C [7] is reported as 98 % of control, the T/C [8] is reported as 96 % of control and the T/C [9] is reported as 98 % of control.
[Br][Hg][c]1ccccc1 was tested, and the T/C (dose: 75.0 mg/kg/injection, schedule: Q01DX001 (ip), vehicle: carboxymethylcellulose (CMC)) was 108 % of control.
With c1ccc(-c2nn3c(-c4ccccc4)nnc3o2)cc1 the T/C (dose: 66.0 mg/kg/injection, schedule: Q01DX009 (ip), vehicle: saline with Tween-80) was 90 % of control, the T/C [20] was 92 % of control and the T/C (dose: 150.0 mg/kg/injection, schedule: Q01DX009 (ip), vehicle: saline with Tween-80) was 95 % of control. For the same compound, the T/C [21] was 90 % of control, the T/C [22] was 93 % of control and the T/C [23] was 164 % of control. The T/C [24] was 92 % of control.
Nc1ccc(S(=O)(=O)Nc2ccc(N(CCCl)CCCl)cc2)cc1 was tested, and the T/C [17] was 108 % of control, the T/C [20] was 105 % of control and the T/C [21] was 113 % of control. For the same compound, the T/C [22] was 103 % of control, the T/C [23] was 111 % of control and the T/C [24] was 102 % of control.
In the case of O=CNC1(CO)CCCCC1, the T/C [10] is reported as 105 % of control, the T/C [11] is reported as 102 % of control and the T/C (dose: 300.0 mg/kg/injection, schedule: Q01DX001 (ip), vehicle: saline) is reported as 96 % of control.
For Cc1ccc2c(c1)C(c1ccccc1)=C(NC1CCCCC1)C2=O, the T/C [1] was 87 % of control, the T/C [3] was 91 % of control and the T/C [5] was 92 % of control.
In the case of CCOC(=O)NCC(C)(CCN1CCCC1)c1cccc2ccccc12 (configuration not stated), the T/C [15] is reported as 93 % of control, the T/C (dose: 12.5 mg/kg/injection, schedule: Q04DX003 (ip), vehicle: Klucel (hydroxypropylcellulose) (HPC)) is reported as 100 % of control and the T/C [16] is reported as 88 % of control. The T/C (dose: 25.0 mg/kg/injection, schedule: Q04DX003 (ip), vehicle: Klucel (hydroxypropylcellulose) (HPC)) was 100 % of control and the T/C (dose: 50.0 mg/kg/injection, schedule: Q04DX003 (ip), vehicle: Klucel (hydroxypropylcellulose) (HPC)) was 100 % of control.
With O=C(Nc1ccccc1F)OCc1ccco1 the T/C [1] was 99 % of control, the T/C [2] was 95 % of control and 102 % of control and the T/C (dose: 100.0 mg/kg/injection, schedule: Q04DX002 (ip), vehicle: Klucel (hydroxypropylcellulose) (HPC)) was 102 % of control and 106 % of control. For the same compound, the T/C [3] was 99 % of control, the T/C [4] was 95 % of control and 91 % of control and the T/C (dose: 200.0 mg/kg/injection, schedule: Q04DX002 (ip), vehicle: Klucel (hydroxypropylcellulose) (HPC)) was 106 % of control and 118 % of control. For the same compound, the T/C [5] was 94 % of control, the T/C [6] was 98 % of control and 102 % of control and the T/C (dose: 400.0 mg/kg/injection, schedule: Q04DX002 (ip), vehicle: Klucel (hydroxypropylcellulose) (HPC)) was 96 % of control and 104 % of control.
